Data as given in US20050050594A1, “Tryptophan synthase as a site of herbicide action” (priority 1999, published 2005).

Key:
TSβ (Spinacea enzyme) = assay: TSβ assay with partially purified spinach enzyme; format: biochemical, Spinacea oleracea; parameters: key: the increase in the number of “+” corresponds to the increase of inhibition; +++++: the increase in the number of “+” corresponds to the increase of inhibition; +++++++: the increase in the number of “+” corresponds to the increase of inhibition; details: determined qualitatively
Description: The assay was conducted in microfuge tubes by the TSβ reaction (indole+L-serine→L-tryptophan+H2O). 100 μL of extract was mixed with 150 μL of 0.4 mM indole, 80 mM serine, 0.03 mM PLP, 0.1 M Tris-Cl buffer pH 7.8, containing 7.5 μL of saturated NaCl. The mixture was incubated at 21° C. for increasing time intervals, from 10 min to several hours. The reaction was terminated by adding 25 μL 1 N NaOH, then 1 mL toluene with mixing, and then centifuging in a microfuge 2 min at 10,000×G to partition remaining indole into the toluene phase and away from the enzyme. Remaining indole was subsequently partitioned into the indole reagent phase and reacted with dimethylaminobenzaldehyde: 500 μL of the toluene layer from the microfuge tubes was mixed with 1 ml of the indole reagent in another tube and allowed to separate for 20 min, then the lower layer was carefully pipetted into a cuvette and its absorbance measured at 540 nm. This part of the assay was conducted as known in the art.
A unique microtiter plate method was also developed to streamline the partitioning steps and data collection. First, the TSβ reaction was performed as above in microfuge tubes. […] The plate was covered by a mylar sheet (to protect the plate reader and avoid evaporation) and absorbance was monitored on the plate reader at 535 nm. […]
TS was partially purified from spinach for use in the TSβ assay. The greatest degree of purification was achieved by homogenizing the tissue, preparing the 30-50% ammonium sulfate fraction and freezing it, thawing it, and applying the dissolved precipitate to an FPLC column (Waters SW300, Waters Corporation, Franklin, Mass.) to separate the TS activity (measured as TSβ) from the bulk of the protein. […] Because of the low yield of the assay of partially purified plant TS, endogenous enzyme was measured in crude extracts or in enzyme preparations involving one or two purification steps. […]

[1] = system: mustard, hemp sesbania, soybean, lambsquarters, pigweed, bindweed, morningglory, corn, green foxtail, velvetleaf; assay: Early injury symptoms and species effects on postemergence treated plants; format: in vivo; details: post emergence, 4 or 8 kg/ha; for Symptoms 6 DAT: 6 days after application
Source text: Herbicidal compounds of the invention were examined for their herbicidal effects by observing symptoms on postemergence treated plants.
Early injury symptoms caused by the TS-inhibiting herbicides of the invention are represented in Table 13. Symptoms and species effects are represented through the herbicidal activity {4-[(o-hydroxyphenyl)thio]butyl}-phosphonic acid, applied at 4 or 8 kg/ha.

O=P(O)(O)CCCCSc1ccccc1O [Compound 22, {4-[(o-hydroxyphenyl)thio]butyl}-phosphonic acid]
TSβ (Spinacea enzyme), relative activity (TSβ (Spinacea enzyme)): + | Symptoms 6 DAT ([1]; height reduction): height reduction: lambs quarter, | Symptoms 6 DAT ([1]; increased branching): increased branching: soybean | Symptoms 6 DAT ([1]; leaf mottling): leaf mottling: mustard, soybean, | Symptoms 6 DAT ([1]; leaf yellowing): leaf yellowing: mustard, hemp | Symptoms 6 DAT ([1]; shoot tip yellowing): shoot tip yellowing: hemp sesbania | Symptoms 6 DAT ([1]; tip necrosis): tip necrosis: hemp sesbania | Species effects, 13 DAT: bindweed ([1]; 13 days after application): bindweed: mottling, some necrosis, | Species effects, 13 DAT: corn ([1]; 13 days after application): corn: unaffected | Species effects, 13 DAT: green foxtail ([1]; 13 days after application): green foxtail: stunted, yellowing, red | Species effects, 13 DAT: hemp sesbania ([1]; 13 days after application): hemp sesbania: no growth between 6 | Species effects, 13 DAT: lambsquarters height reduction ([1]; 13 days after application): lambsquarters: 40% height reduction, | Species effects, 13 DAT: pigweed height reduction ([1]; 13 days after application): pigweed: 25% height reduction | Species effects, 13 DAT: soybean ([1]; 13 days after application): soybean: shoot nearly dead except | Species effects, 13 DAT: velvetleaf height reduction ([1]; 13 days after application): velvetleaf: 50% height reduction
